Legend:
[1] = system: sodium currents in colon DRG neurons; assay: Whole cell patch-clamp, activity-dependent (use-dependent) modulation of sodium currents, slow vs fast stimulation; type: cell-based, rat; conditions: 100 µM lamotrigine; slow (0.2 Hz) vs fast (17 Hz) step depolarizations from −50 to 0 mV; three neurons; P<0.05 vs slow stimulation
Procedure: (§1) Labeling of GI tract afferent neurons: Adult female Sprague-Dawley rats (150–300 g) were deeply anesthetized with pentobarbital anesthesia and placed on isoflurane maintenance anesthesia. A ventral midline incision was made through the abdominal skin and musculature, exposing the GI tract. Five injections of the fluorescent dyes Di-I (5 µl each of 25 mg/ml Di-I in DMSO) or Fast Blue (4% w/v) were made into the wall of the colon to label primary afferent fibers innervating the GI tract. The areas were rinsed with sterile saline to eliminate nonspecific spread of dye, and the incision was closed. […] Labeled neurons were identified in vitro using fluorescence optics. […]
(§2) In most experiments, neurons were incubated in culture medium containing the FITC-labeled lectin BSI-B4 (IB4, […]) at 37° C. for 5 min before recording. The coverslip was washed with extracellular recording solution for 1 min before being placed in a recording chamber mounted on the stage of an inverted microscope equipped with fluorescence optics. […]
(§3) Sodium currents were recorded from DRG neurons using standard electrophysiologic protocols. […] Currents were recorded using a patch-clamp amplifier and digitized at 3–10 kHz for acquisition. Neuronal input resistance and membrane capacitance were determined from the amplitude and kinetics of the current response to a voltage pulse from a holding potential of −50 mV. […]

[2] = molecular target: TTX-R sodium currents in GI tract afferent neurons (Rattus norvegicus, UniProt Q62968); assay: Whole cell patch-clamp, tonic block of TTX-R sodium currents, cumulative concentration-response; type: cell-based; conditions: bath application; four GI tract afferent neurons
TTX-R sodium currents in GI tract afferent neurons, sequence (Q62968 whole entry, looked up): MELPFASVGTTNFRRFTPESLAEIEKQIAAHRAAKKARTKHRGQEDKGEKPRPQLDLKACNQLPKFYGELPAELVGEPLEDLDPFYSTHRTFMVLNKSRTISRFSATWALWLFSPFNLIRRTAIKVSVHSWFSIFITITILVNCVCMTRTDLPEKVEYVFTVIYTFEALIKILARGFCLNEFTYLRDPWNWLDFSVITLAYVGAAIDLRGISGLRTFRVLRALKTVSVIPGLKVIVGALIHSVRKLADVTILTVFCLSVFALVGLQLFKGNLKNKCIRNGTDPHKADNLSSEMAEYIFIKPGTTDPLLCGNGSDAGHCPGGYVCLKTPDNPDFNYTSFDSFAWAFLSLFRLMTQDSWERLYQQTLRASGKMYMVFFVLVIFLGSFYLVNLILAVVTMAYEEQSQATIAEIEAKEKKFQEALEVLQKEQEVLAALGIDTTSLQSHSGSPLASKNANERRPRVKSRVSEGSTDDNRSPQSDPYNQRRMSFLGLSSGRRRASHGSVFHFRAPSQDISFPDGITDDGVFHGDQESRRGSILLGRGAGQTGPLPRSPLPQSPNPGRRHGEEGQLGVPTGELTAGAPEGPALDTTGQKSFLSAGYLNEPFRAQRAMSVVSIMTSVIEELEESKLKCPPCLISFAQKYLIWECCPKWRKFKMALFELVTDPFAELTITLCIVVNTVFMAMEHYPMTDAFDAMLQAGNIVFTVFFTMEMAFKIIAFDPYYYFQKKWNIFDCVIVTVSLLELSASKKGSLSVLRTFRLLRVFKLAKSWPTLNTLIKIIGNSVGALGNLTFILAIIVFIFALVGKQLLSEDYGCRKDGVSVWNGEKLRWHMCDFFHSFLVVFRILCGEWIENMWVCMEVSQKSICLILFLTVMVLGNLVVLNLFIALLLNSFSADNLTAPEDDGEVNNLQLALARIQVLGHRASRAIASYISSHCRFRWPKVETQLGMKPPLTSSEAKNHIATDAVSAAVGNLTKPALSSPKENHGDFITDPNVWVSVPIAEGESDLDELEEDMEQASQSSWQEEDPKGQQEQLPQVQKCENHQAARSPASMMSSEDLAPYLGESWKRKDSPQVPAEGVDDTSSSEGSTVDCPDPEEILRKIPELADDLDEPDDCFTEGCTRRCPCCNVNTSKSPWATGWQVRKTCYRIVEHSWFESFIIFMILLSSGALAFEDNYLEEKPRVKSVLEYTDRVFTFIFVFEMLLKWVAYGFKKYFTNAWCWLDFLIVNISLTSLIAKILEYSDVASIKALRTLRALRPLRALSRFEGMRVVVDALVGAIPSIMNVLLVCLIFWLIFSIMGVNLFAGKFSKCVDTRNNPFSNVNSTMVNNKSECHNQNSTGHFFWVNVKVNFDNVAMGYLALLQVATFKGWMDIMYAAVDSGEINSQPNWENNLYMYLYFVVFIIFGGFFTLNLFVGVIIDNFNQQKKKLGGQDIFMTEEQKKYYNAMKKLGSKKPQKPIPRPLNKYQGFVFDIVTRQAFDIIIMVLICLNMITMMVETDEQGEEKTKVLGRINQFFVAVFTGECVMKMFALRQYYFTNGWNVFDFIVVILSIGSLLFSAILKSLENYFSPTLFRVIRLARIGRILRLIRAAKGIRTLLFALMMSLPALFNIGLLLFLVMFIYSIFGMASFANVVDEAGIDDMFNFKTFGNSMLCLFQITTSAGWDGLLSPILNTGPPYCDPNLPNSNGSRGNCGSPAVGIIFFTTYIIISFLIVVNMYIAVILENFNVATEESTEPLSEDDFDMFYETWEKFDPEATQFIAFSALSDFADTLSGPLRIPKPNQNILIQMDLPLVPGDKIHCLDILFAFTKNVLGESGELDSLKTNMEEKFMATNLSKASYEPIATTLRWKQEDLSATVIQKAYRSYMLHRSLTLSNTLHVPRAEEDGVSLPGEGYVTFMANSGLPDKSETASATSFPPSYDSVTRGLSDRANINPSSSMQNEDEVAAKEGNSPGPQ
Procedure: as §1, §2, §3

Structure (SMILES): Nc1nnc(-c2cccc(Cl)c2Cl)c(N)n1 [lamotrigine, 6-(2,3-Dichlorophenyl)-1,2,4-triazine-3,5-diamine]
- mean peak sodium current amplitude (mean % control amplitude) [1]: decreased to a greater extent under fast stimulation conditions

Structure (SMILES): Nc1c(Br)cc(Br)cc1CNC1CCC(O)CC1 (centres unmarked) [Ambroxol]
- block of TTX-R sodium currents (in words) [2]: concentration-dependent reversible block

From US7041704B2, “Methods of treating gastrointestinal tract disorders using sodium channel modulators” (Dynogen Pharmaceuticals, Inc., priority 2003, dated 2006)
